Measurements: patent publication US12617803B2, “Condensed isoxazoline derivatives and their use as herbicides” (BASF SE, priority 2020, dated 2026)

Experiments:
Assay type in all cases: in vivo
[1] = tested on: AMARE (Amaranthus retroflexus); test: greenhouse post-emergence herbicidal test; settings: scale from 0 to 100
Excerpt: (§1) The seeds of the test plants were sown separately for each species. For the pre-emergence treatment, the active ingredients, which had been suspended or emulsified in water, were applied directly after sowing by means of finely distributing nozzles. The containers were irrigated gently to promote germination and growth and subsequently covered with transparent plastic hoods until the test plants had rooted. This cover caused uniform germination of the test plants, unless this had been impaired by the active ingredients. For the post-emergence treatment, the test plants were first grown to a height of 3 to 15 cm, depending on the plant habit, and only then treated with the active ingredients which had been suspended or emulsified in water. For this purpose, the test plants were either sown directly and grown in the same containers, or they were first grown separately as seedlings and transplanted into the test containers a few days prior to treatment. Depending on the species, the test plants were kept at 10-25° C. or 20-35° C., respectively. The test period extended over 2 to 4 weeks. During this time, the test plants were tended, and their response to the individual treatments was evaluated. Evaluation was carried out using a scale from 0 to 100. 100 means no emergence of the test plants, or complete destruction of at least the aerial moieties, and 0 means no damage, or normal course of growth. A good herbicidal activity is given at values of 70 to 90 and a very good herbicidal activity is given at values of 90 to 100. The test plants used in the greenhouse experiments were of the following species: [table]

AVEFA (Avena fatua) = test: greenhouse post-emergence herbicidal test; settings: scale from 0 to 100, read-out: herbicidal activity against AVEFA; for pest or weed control at 630 g/ha: 0.63 kg/ha; for pest or weed control at 250 g/ha: 0.250 kg/ha; for pest or weed control at 125 g/ha: 0.125 kg/ha
Excerpt: as §1

[2] = tested on: POLCO (Fallopia convolvulus); test: greenhouse post-emergence herbicidal test; settings: 0.63 kg/ha, scale from 0 to 100
Excerpt: as §1

[3] = tested on: APESV (Apera spica-venti); test: greenhouse pre-emergence herbicidal test; settings: scale from 0 to 100, read-out: herbicidal activity against APESV; for pest or weed control at 250 g/ha: pre-emergence, 0,250 kg/ha; for pest or weed control at 125 g/ha: pre-emergence, 0.125 kg/ha
Excerpt: as §1

SETFA (Setaria faberi) = test: greenhouse pre-emergence herbicidal test; settings: scale from 0 to 100
Excerpt: as §1

[4] = tested on: ECHCG (Echinocloa crus-galli); test: greenhouse post-emergence herbicidal test; settings: 0.63 kg/ha, scale from 0 to 100
Excerpt: as §1

SETVI (Setaria viridis) = test: greenhouse post-emergence herbicidal test; settings: scale from 0 to 100
Excerpt: as §1

[5] = tested on: AMARE (Amaranthus retroflexus); test: greenhouse pre-emergence herbicidal test; settings: 0.125 kg/ha, scale from 0 to 100
Excerpt: as §1

[6] = tested on: ALOMY (Alopercurus myosuroides); test: greenhouse post-emergence herbicidal test; settings: 0.125 kg/ha, scale from 0 to 100
Excerpt: as §1

[7] = tested on: ABUTH (Abutilon theophrasti); test: greenhouse post-emergence herbicidal test; settings: 0.500 kg/ha, scale from 0 to 100
Excerpt: as §1

[8] = tested on: ECHCG (Echinocloa crus-galli); test: greenhouse pre-emergence herbicidal test; settings: pre-emergence, 0,250 kg/ha, scale from 0 to 100
Excerpt: as §1

COC(=O)[C@H]1CC[C@H](NC(=O)C23CCC2C(c2cc(Cl)cc(Cl)c2)=NO3)C1 (some centres unmarked) [I21]
herbicidal activity against AMARE ([1]; 0.63 kg/ha): very good (a very good herbicidal activity is given at values of 90 to 100)
pest or weed control at 630 g/ha (AVEFA (Avena fatua)): 70 to 90%
herbicidal activity against POLCO [2]: good (A good herbicidal activity is given at values of 70 to 90)

COC(=O)CC[C@H](C)NC(=O)C12CC1C(c1cc(F)cc(F)c1)=NO2 (stereo partly drawn) [I16, methyl (4S)-4-[[4-(3,5-difluorophenyl)-2-oxa-3-azabicyclo[3.1.0]hex-3-ene-1-carbonyl]amino]pentanoate]
pest or weed control at 250 g/ha [3]: 70 to 90%
pest or weed control at 250 g/ha (AVEFA (Avena fatua)): 90 to 100%

COC(=O)C1C=C[C@H](NC(=O)C23CC2C(c2cc(Cl)cc(Cl)c2)=NO3)C1 (some centres unmarked) [I17]
pest or weed control at 250 g/ha [3]: 90 to 100%
pest or weed control at 250 g/ha (AVEFA (Avena fatua)): 90 to 100%

COC(=O)[C@@H]1C=C[C@H](NC(=O)C23C=CCC2C(c2cc(F)cc(F)c2)=NO3)C1 (stereo partly drawn) [I19, methyl (1S,4R)-4-[[3-(3,5-difluorophenyl)-3a,4-dihydrocyclopenta[d]isoxazole-6a-carbonyl]amino]cyclopent-2-ene-1-carboxylate]
pest or weed control at 250 g/ha [3]: 90 to 100%
herbicidal activity against SETFA (SETFA (Setaria faberi); pre-emergence, 0,250 kg/ha): very good (a very good herbicidal activity is given at values of 90 to 100)
pest or weed control at 250 g/ha (AVEFA (Avena fatua)): 90 to 100%

COC(=O)[C@H]1C[C@@H](NC(=O)C23CCC2C(c2cc(Cl)cc(Cl)c2)=NO3)CO1 (some centres unmarked) [I20]
pest or weed control at 630 g/ha (AVEFA (Avena fatua)): 90 to 100%
herbicidal activity against ECHCG [4]: good (A good herbicidal activity is given at values of 70 to 90)
herbicidal activity against SETVI (SETVI (Setaria viridis); 0.63 kg/ha): very good (a very good herbicidal activity is given at values of 90 to 100)

COC(=O)[C@@H]1C=C[C@H](NC(=O)C23CCCC2C(c2cc(Cl)cc(Cl)c2)=NO3)C1 (some centres unmarked) [I1]
herbicidal activity against AMARE [5]: very good (a very good herbicidal activity is given at values of 90 to 100)
pest or weed control at 125 g/ha [3]: 90 to 100%
herbicidal activity against ALOMY [6]: good (A good herbicidal activity is given at values of 70 to 90)
herbicidal activity against AMARE ([1]; 0.125 kg/ha): very good (a very good herbicidal activity is given at values of 90 to 100)
pest or weed control at 125 g/ha (AVEFA (Avena fatua)): 70 to 90%

COC(=O)CC[C@H](C)NC(=O)C12ON=C(c3cc(F)cc(F)c3)C1CCS2 (some centres unmarked) [I15]
pest or weed control at 500 g/ha ([3]; pre-emergence, 0,500 kg/ha): 70 to 90%
herbicidal activity against ABUTH [7]: good (A good herbicidal activity is given at values of 70 to 90)
pest or weed control at 500 g/ha (AVEFA (Avena fatua); 0.500 kg/ha): 90 to 100%
herbicidal activity against SETVI (SETVI (Setaria viridis); 0.500 kg/ha): very good (a very good herbicidal activity is given at values of 90 to 100)

COC(=O)CC[C@H](C)NC(=O)C12CCCC1C(c1cc(Cl)cc(Cl)c1)=NO2 (some centres unmarked) [I2]
pest or weed control at 125 g/ha [3]: 70 to 90%
herbicidal activity against ALOMY [6]: very good (a very good herbicidal activity is given at values of 90 to 100)
herbicidal activity against AMARE ([1]; 0.125 kg/ha): good (A good herbicidal activity is given at values of 70 to 90)
pest or weed control at 125 g/ha (AVEFA (Avena fatua)): 90 to 100%

COC(=O)[C@@H]1C=C[C@H](NC(=O)C23ON=C(c4cc(Cl)cc(Cl)c4)C2CCC3(C)C)C1 (some centres unmarked) [I12]
herbicidal activity against SEFTA (SETFA (Setaria faberi); pre-emergence, 0.125 kg/ha): good (A good herbicidal activity is given at values of 70 to 90)

COC(=O)[C@@H]1C=C[C@H](NC(=O)C23ON=C(c4cc(Cl)cc(Cl)c4)C2CCS3)C1 (stereo partly drawn) [I13, methyl (1S,4R)-4-[[3-(3,5-dichlorophenyl)-4,5-dihydro-3aH-thieno[3,2-d]isoxazole-6a-carbonyl]amino]cyclopent-2-ene-1-carboxylate]
pest or weed control at 250 g/ha [3]: 90 to 100%
herbicidal activity against ECHCG [8]: very good (a very good herbicidal activity is given at values of 90 to 100)
pest or weed control at 250 g/ha (AVEFA (Avena fatua)): 90 to 100%

COC(=O)[C@@H]1C=C[C@H](NC(=O)C23NCCC2C(c2cc(Cl)cc(Cl)c2)=NO3)C1 (stereo partly drawn) [I10, methyl (1S,4R)-4-[3-(3,5-dichlorophenyl)-3aH,4H,5H,6H-pyrrolo[3,2-d][1,2]oxazole-6a-amido]cyclopent-2-ene-1-carboxylate]
pest or weed control at 250 g/ha [3]: 70 to 90%
pest or weed control at 250 g/ha (AVEFA (Avena fatua)): 90 to 100%
